# Experimental data as given in US20240390369A1, “METHODS FOR DETERMINING RESPONSIVENESS TO TYK2 INHIBITORS” (Bristol-Myers Squibb Company, priority 2021, published 2024).
# Values joined by “and” are separate entries in the source; they are usually repeats but may differ in a detail not shown here. Identical values can stand only once.
# Test system: patients with psoriatic arthritis
# Assay: Phase 2 trial in psoriatic arthritis: PASI75 response at week 16
# Assay type: in vivo, human
# Settings: for Interaction Term for PASI75 response (ratio of odds ratios): week 16; for PASI75 response rate over time / Number of subjects, PASI75 Non-responder at week 16 / Number of subjects, PASI75 Responder at week 16 / Number of subjects, PASI75 Non-responder / Number of subjects, PASI75 Responder / Number of subjects: 6 mg QD; for PASI75 response rate over time: 12 mg QD, placebo, sixteen-week treatment period
# Method: In a double-blind Phase 2 trial, 203 patients with psoriatic arthritis were randomized into three groups: deucravacitinib 6 mg once daily (N=70), deucravacitinib 12 mg once daily (N=67), or placebo (N=66). All subjects had active psoriatic arthritis according to the Classification Criteria for Psoriatic Arthritis (CASPAR); for active disease, these criteria required ≥3 tender joint count, ≥3 swollen joint count, and a C-reactive protein level above 3 mg/L. Other inclusion criteria included the following: presence of at least one plaque psoriasis lesion, and prior treatment failure with a non-biologic disease modifying anti-rheumatic drug, a non-steroidal anti-inflammatory drug, or a steroid. With respect to treatment history, approximately 70% of subjects had not received prior treatment with a biologic and were biologic naïve, while up to 30% of subjects had failed or had been intolerant to one TNF-inhibitor (TNF=Tumor necrosis factor, also known as TNFα). Randomization was stratified by prior TNF-inhibitor use (experienced/naïve) and body weight (<90 kg and ≥90 kg).
# Clinical measures included the Psoriasis […] (PASI) score for skin psoriasis, American College of Rheumatology 20 (ACR20) response, Psoriatic Arthritis Disease Activity Score (PASDAS), Health Assessment Questionnaire-Disability Index (HAQ-DI), and Disease Activity Score 28 CRP (DAS28). To evaluate the predictive value of different protein measurements for the clinical response to deucravacitinib, baseline protein concentrations for responders and non-responders, as defined by ACR20 or PASI75 at week 16, were compared for each arm (placebo, 6 mg deucravacitinib once-daily, and 12 mg deucravacitinib once-daily).
# In addition, a logistic regression model was fit, to determine whether baseline disease score (dichotomized by the median baseline score, into baseline score high and baseline score low groups) was associated with response status. The model generated an odds ratio for each dosed arm versus placebo, in baseline score high and baseline score low groups.
# Boxplots for baseline protein level by response were generated with a horizontal line indicating the median protein level at baseline. For each treatment arm, a two-sample t-test was performed to test whether mean baseline serum protein level was different in responders versus non-responders. A Wilcoxon rank sum test (Mann-Whitney U test) was also performed to evaluate the difference in median serum protein level between responders and non-responders. Further, barplots of ACR20 and PASI75 response rate at week 16 for each treatment arm were generated for all subjects (protein level high and protein level low subjects, dichotomized according to median baseline level). Line plots of ACR20 and PASI75 response rate over time for each treatment arm were generated for protein level high and protein level low groups. Logistic regression models were also fit to evaluate associations between baseline protein levels and clinical outcome.
# For certain analyses described herein, patients were dichotomized by median values (e.g., of the proteins listed above or other measures) into “high” and “low” groups, such that the high group had values above the median and the low group had values less than or equal to the median.
# In addition, logistic regression models were fit for response measures ACR20 and PASI75, to generate the odds ratio of each of the deucravacitinib treatment arms versus placebo, in BD2-high and BD2-low groups. The following logistic regression models were used: • For ACR20 response status: ACR20 (Y/N)=treatment arm+BD2 group+treatment arm*BD2 group+TNF-inhibitor use+baseline weight (continuous). • For PASI75 response status: PASI75 (Y/N)=treatment arm+BD2 group+treatment arm*BD2 group+TNF-inhibitor use+baseline weight (continuous). […]
# [1] = Above median baseline CRP level
# [2] = Below median baseline CRP level
compound,measurement,setting,value
"[2H]C([2H])([2H])NC(=O)c1nnc(NC(=O)C2CC2)cc1Nc1cccc(-c2ncn(C)n2)c1OC [deucravacitinib, 6-(cyclopropanecarboxamido)-4-((2-methoxy-3-(1-methyl-1H-1,2,4-triazol-3-yl)phenyl)amino)-N-(methyl-d3)pyridazine-3-carboxamide]",Interaction Term for PASI75 response (ratio of odds ratios),6 mg QD vs placebo: BD2 high versus BD2 low,11.628
same,"Interaction Term: treatment arm*CRP group, PASI75",6 mg QD vs placebo: CRP high versus CRP low,1.67
same,"Interaction Term: treatment arm*CRP group, PASI75","6 mg QD vs placebo: CRP-high versus CRP-low, adjusted for baseline PASI score",1.67
same,"Interaction Term: treatment arm*IL-17A group, PASI75","6 mg QD vs placebo: IL-17A high versus IL-17A low, adjusted for baseline PASI score",22.889
same,Interaction Term for PASI75 response (ratio of odds ratios),6 mg QD vs placebo: IL-17A high versus IL-17A low,22.851
same,Interaction Term for PASI75 response (ratio of odds ratios),6 mg QD vs placebo: baseline PASI high versus PASI low,5.51 and 5.514
same,PASI75 response rate over time,BD2-high and BD2-low groups (FIG. 9),dose-dependent PASI75 response rate over time was observed in the BD2-high group but not in the BD2-low group
same,PASI75 response rate over time,CRP-high and CRP-low groups (FIG. 40),higher response rates than the placebo arm
same,PASI75 response rate over time,IL-17A-high and IL-17A-low groups (FIG. 23),dose-dependent PASI75 response over time was observed in IL-17A-high but not in IL-17A-low PsA patients
same,PASI75 response rate over time,IL-19-high and IL-19-low groups (FIG. 16),dose-dependent PASI75 response over time was observed in IL-19-high but not in IL-19-low PsA patients
same,"Number of subjects, PASI75 Non-responder at week 16",[1],17
same,"Number of subjects, PASI75 Responder at week 16",[1],16
same,"Number of subjects, PASI75 Non-responder at week 16",[2],17
same,"Number of subjects, PASI75 Responder at week 16",[2],9
same,"Number of subjects, PASI75 Non-responder",CRP-high-PASI-high,4
same,"Number of subjects, PASI75 Responder",CRP-high-PASI-high,11
same,"Number of subjects, PASI75 Non-responder",CRP-high-PASI-low,13
same,"Number of subjects, PASI75 Responder",CRP-high-PASI-low,5
same,"Number of subjects, PASI75 Non-responder",CRP-low-PASI-high,7
same,"Number of subjects, PASI75 Responder",CRP-low-PASI-high,5
same,"Number of subjects, PASI75 Non-responder",CRP-low-PASI-low,10
same,"Number of subjects, PASI75 Responder",CRP-low-PASI-low,4
same,Number of subjects,"PASI75 non-responder at week 16, above baseline PASI median 6.6",11
same,Number of subjects,"PASI75 non-responder at week 16, above median baseline BD2 level",17
same,Number of subjects,"PASI75 non-responder at week 16, above median baseline IL-17A level",14
same,Number of subjects,"PASI75 non-responder at week 16, above median baseline IL-19 level",18
same,Number of subjects,"PASI75 non-responder at week 16, below baseline PASI median 6.6",23
same,Number of subjects,"PASI75 non-responder at week 16, below median baseline BD2 level",16
same,Number of subjects,"PASI75 non-responder at week 16, below median baseline IL-17A level",20
same,Number of subjects,"PASI75 non-responder at week 16, below median baseline IL-19 level",16
same,Number of subjects,"PASI75 non-responder, BD2-high-PASI-high",8
same,Number of subjects,"PASI75 non-responder, BD2-high-PASI-low",12
same,Number of subjects,"PASI75 non-responder, BD2-low-PASI-high",3
same,Number of subjects,"PASI75 non-responder, BD2-low-PASI-low",11
same,Number of subjects,"PASI75 non-responder, IL-17A-high-PASI-high",8
same,Number of subjects,"PASI75 non-responder, IL-17A-high-PASI-low",6
same,Number of subjects,"PASI75 non-responder, IL-17A-low-PASI-high",3
same,Number of subjects,"PASI75 non-responder, IL-17A-low-PASI-low",17
same,Number of subjects,"PASI75 non-responder, IL-19-high-PASI-high",9
same,Number of subjects,"PASI75 non-responder, IL-19-high-PASI-low",9
same,Number of subjects,"PASI75 non-responder, IL-19-low-PASI-high",2
same,Number of subjects,"PASI75 non-responder, IL-19-low-PASI-low",14
same,Number of subjects,"PASI75 responder at week 16, above baseline PASI median 6.6",16
same,Number of subjects,"PASI75 responder at week 16, above median baseline BD2 level",22
same,Number of subjects,"PASI75 responder at week 16, above median baseline IL-17A level",19
same,Number of subjects,"PASI75 responder at week 16, above median baseline IL-19 level",19
same,Number of subjects,"PASI75 responder at week 16, below baseline PASI median 6.6",9
same,Number of subjects,"PASI75 responder at week 16, below median baseline BD2 level",15
same,Number of subjects,"PASI75 responder at week 16, below median baseline IL-17A level",6
same,Number of subjects,"PASI75 responder at week 16, below median baseline IL-19 level",6
same,Number of subjects,"PASI75 responder, BD2-high-PASI-high",14
